In patent US11795190B2, “D-glycero-B-D-heptose 1-phosphate (HMP) conjugates and use for targeted immune modulation” (NATIONAL RESEARCH COUNCIL OF CANADA, priority 2017, dated 2023):

Key:
[1] = tested on: HEK 293T cells encoding an NF-κB-driven luciferase reporter gene; test: NF-κB-driven luciferase reporter assay in HEK 293T cells; type: cell-based, human; conditions: FIG. 12; HEK 293T; 10, 30 or 50 μg/mL, digitonin 20 min, luciferase after 6 hours
Protocol: (§1) FIGS. 10A-B. Effect of chemically synthesised analogues on human embryonic kidney cells (HEK 293T) encoding an NF-κB-driven luciferase reporter gene. NF-κB luciferase activity was measured in wild type (WT) or TIFA knockout (TIFA KO) cells treated with compounds in the presence of digitonin for 20 min, washed, and then cultured in normal medium without the synthetic compounds for 6 hrs after treatment, before luciferase activity was measured. (A) Cells were treated with 10 μg/mL of the indicated compound. Data are means±standard error mean of technical triplicates. (B) Cells were treated with two different molar concentrations of compound (30 μM or 150 μM). Two batches of DD-β-HBP and DD-β-HMP synthesized independently of one another were tested (batch #1 and batch #2) to assess consistency of the chemical synthesis. Data are means±standard error mean of technical triplicates and are representative of three independent experiments. JS-12: D-glycero-D-manno-heptose; JS-2: D-glycero-D-manno-heptose 7-phosphate; JS-7:D-glycero-β-D-manno-heptose-phosphate; JS-8: D-glycero-α-D-manno-heptose-phosphate; JS-9: β-D-mannose phosphate; JS-6:D-glycero-β-D-manno heptose 1,7-biphosphate; JS-5: D-glycero-α-D-manno heptose 1,7-biphosphate.
FIG. 12. Effects of compounds/products according to the invention on HEK 293T cells encoding an NF-κB-driven luciferase reporter gene. HEK 293T cells were transfected with a plasmid encoding an NF-κB-driven luciferase reporter. After 24 hours, cells were stimulated for 20 minutes in permeabilization buffer (5 μg/mL digitonin) in the presence of water or 10 μg/mL, 30 μg/mL, or 50 μg/mL of indicated synthetic compounds according to the invention. Treatment was removed; cells were washed and incubated for 6 hours incomplete medium. A luciferase assay was then performed. JS-12a control: D-glycero-D-manno heptose. The results are the means±standard error of the mean of three technical replicates. JS-10: 7-O-(Aminoethyl)-D-glycero-β-D-manno-heptopyranose phosphate; JS-11: 7-O-(Aminoethyl)-D-glycero-D-manno-heptopyranose; JS-12: D-glycero-D-manno-heptose; Js-13: pH-Rhodo-7-O-(aminoethyl)-D-glycero-β-D-manno-heptopyranose phosphate.
FIG. 14. Effects of compounds/products according to the invention on HEK 293T cells encoding an NF-κB-driven luciferase reporter gene. HEK 293T cells were transfected with a plasmid encoding an NF-κB-driven luciferase reporter. After 24 hours, cells were stimulated for 20 minutes in permeabilization buffer (5 μg/mL digitonin) in the presence of water, or either 30 μM or 150 μM of indicated synthetic compounds according to the invention. Treatment was removed; cells were washed and incubated for 6 hours in complete medium. A luciferase assay was then performed. […]

[2] = tested on: TIFA knockout (TIFA KO) HEK 293T cells encoding an NF-κB-driven luciferase reporter gene; test: NF-κB-driven luciferase reporter assay in TIFA knockout HEK 293T cells; type: cell-based, human; conditions: TIFA KO cells
Protocol: as §1

NCCOC[C@@H](O)C1O[C@@H](OP(=O)([O-])[O-])C(O)[C@@H](O)[C@@H]1O.[Na+].[Na+] (stereo partly drawn) [JS-10a, 7-O-(Aminoethyl)-D-glycero-β-D-manno-heptopyranose phosphate]
inflammatory response (NF-κB luciferase) [1]: modest inflammatory response
activity in TIFA KO cells (NF-κB luciferase), TIFA dependence ([2]; FIG. 12, 10, 30 or 50 μg/mL): relative absence of activity
activity in TIFA KO cells (NF-κB luciferase), TIFA dependence ([2]; FIG. 14, 30 μM or 150 μM): relative absence of activity
